Where “and” joins values, the source holds several entries; their conditions need not be identical. Identical values can stand only once. Entries after “also recorded” stand apart in the source; their conditions may differ.
What was measured:
appetite and body weight = conditions: cited from earlier work
[1] = extensive studies in animals; cited from earlier work
gastrointestinal tract = test: Aminosterol Induced GI Response after oral capsule in a human; format: in vivo
Procedure: Gelatin capsules were prepared for oral administration. Capsules were coated in shellac to prevent their release within the stomach. Furthermore, because squalamine and related aminosterols have antibiotic activity, enteric coating prevents the drug from altering the microbial populations of the stomach. […] Squalamine dilactate powder, 99% pure, or 1436 hydrochloride, 99% pure, was added manually into either Size 0 (for the 200 mg dose) or Size 1 (for the 100 mg dose) gelatin capsules. No excipient was added. The capsules were coated twice in 5% shellac (80% acetone/20% ethanol) and dried before use.
200 mg of squalamine (lactate salt, excipient free) in a coated gelatin capsule was administered orally to a human in the morning on an empty stomach, with water. Squalamine was synthesized as described in Zasloff et al 2011. Within 2 hours nausea was experienced, lasting about 30 minutes. At 2.5 hours, increased peristalsis (“rumbling gut”) was experienced, lasting several minutes. At about 3 hours, a clear watery discharge of about 200 ml was passed rectally. A second episode occurred at 3.2 hours. Following this episode, bowel sounds quieted. No nausea or discomfort was subsequently experienced. Appetite was near normal. Despite normal feeding, feces were not passed for 2.5 days over which time no discomfort was experienced. The first feces passed after this quiescent period was soft and relatively small considering the intake of food and the time interval. Usual bowel functions resumed by about 4 days after squalamine administration.
200 mg of 1436 (HCl salt, excipients free) in a gelatin capsule was administered orally to a human in the morning on an empty stomach, with water. […] At 2 hours, about 100 ml of clear watery diarrhea, recurring at 2.75 hours, 3 hours, 3.25 hours, and 4 hours, with progressively lesser volumes of liquid discharged. First bowel movement was passed at 3.5 days, of normal consistency. The subject experienced no abdominal discomfort, bloating, etc over this period. Usual bowel functions resumed by about 4.5 days after administration of Aminosterol 1436. […]
100 mg of squalamine was orally administered in a capsule as in the first example. […] A period of “bowel quiet” was induced, however, that lasted 2 days, after which normally formed feces were passed.

HIV = conditions: tissue culture; cited from earlier work
[2] = single 200 mg oral capsule, morning, empty stomach, one human

For `CC(C)[C@@H](CC[C@@H](C)[C@H]1CC[C@H]2[C@@H]3[C@H](O)C[C@H]4C[C@@H](NCCCNCCCCNCCCN)CC[C@]4(C)[C@H]3CC[C@]12C)OS(=O)(=O)O` [Aminosterol 1436], the “anorectic activity when administered orally” value (appetite and body weight; oral, dogs and rodents) is given as “no anorectic activity”, the “appetite and weight on parenteral administration” value (appetite and body weight; parenteral) is given as “potent appetite suppression and promotion of dose-dependent weight loss; also recorded: capable of inducing weight loss” and the “absorption from the gastrointestinal tract” value [1] is given as “neither squalamine nor Aminosterol 1436 can be absorbed to any extent”. For the same compound, the “duration of the Aminosterol-Induced GI Response” value (gastrointestinal tract; following a single 200 mg oral dose) was “about 4 days”, the “first clear watery rectal discharge / diarrhea, time after dosing” value (gastrointestinal tract; [2]) was 2 h and the “further episodes of watery discharge, time after dosing” value (gastrointestinal tract; [2]) was 2.75 h and 3 h and 3.25 h and 4 h. The “increased peristalsis, time after dosing” value (gastrointestinal tract; [2]) was no more than 1 h, the “usual bowel functions resumed, time after administration” value (gastrointestinal tract; [2]) was “about 4.5 days” and the “volume of first clear watery discharge” value (gastrointestinal tract; [2]) was “about 100 ml”. For the same compound, the “time without feces / to first bowel movement after dosing” value (gastrointestinal tract; single 200 mg oral capsule, morning, empty stomach, normal behavior about 1 passage every 24 hours) was 3.5 days, the “estimated reduction of small intestinal motility” value (gastrointestinal tract; single 200 mg oral dose, versus normal about 1 passage every 24 hours) was 3.5 fold and the antiviral activity (HIV) was “exhibits antiviral activity against HIV”.

From patent US10975116B2, “Methods of treating and preventing gastrointestinal motility disorders using aminosterols” (Enterin, Inc., priority 2013, dated 2021)
